# Test results published in article PMC12285946, “Investigation of the Cytotoxicity of Cu(II), Au(III), and Pd(II) Complexes with 2,4-Dithiouracil and 6-Propyl-2-thiouracil Derivatives” (BioTech, 2025).
# Legend:
# [1] = tested on: HeLa cell line (human cervical carcinoma); experiment: MTT cell viability assay, HeLa tumor cell line; type: cell-based; conditions: for Cytotoxic Concentration (CD50): MTT, 72 h
# Description: (§1) To assess the in vitro biocompatibility of the tested compounds, a series of cell viability assays were conducted on human cervical carcinoma cell lines (HeLa), as well as on normal Vero cells (kidney cells from the African green monkey). All cell lines were obtained from the German Collection of Microorganisms and Cell Cultures (DSMZ GmbH, Braunschweig, Germany). The cell cultures were maintained in DMEM (Dulbecco’s Modified Eagle Medium) (Gibco Thermofisher Scientific, 168 Third Avenue, Waltham, MA, USA, 02451) growth medium, supplemented with 10% fetal bovine serum (FBS, Sigma-Aldrich, Darmstadt, Germany) and 5% L-glutamine (Sigma-Aldrich, Darmstadt, Germany) and incubated under controlled conditions of 37 °C in a humidified atmosphere with 5% CO2.
# (§2) The experimental approach included a series of cytotoxicity assays to determine the extent of cell proliferation inhibition by the synthesized complexes and their free ligands. Cell viability was quantified using a standard MTT-based colorimetric assay. Exponentially growing cells were harvested and seeded (100 μL per well) into 96-well plates at an appropriate density—3 × 10^5 for HeLa and Vero cells. The cells were exposed to various concentrations of the tested compounds, ranging from 0.0001 to 10 mg/mL, and incubated for 72 h.
# (§3) Statistical significance was established at p ≤ 0.05.
# [2] = tested on: Vero cell line (kidney cells from African green monkey); experiment: MTT cell viability assay, Vero normal cell line; type: cell-based; conditions: for Cytotoxic Concentration (CD50): Vero normal cell line, MTT, 72 h
# Description: as §1, §2, §3
# [3] = tested on: HeLa cell lines; conditions: cited from earlier work
smiles,measurement,setting,value
CCCc1cc(=O)[nH]c(=S)[nH]1 [6-propyl-2-thiouracil],"cytotoxic activity relative to 2,4-dithiouracil",[1],three times
same,Cytotoxic Concentration (CD50),[1],0.0955 mM
same,Cytotoxic Concentration (CD50),[2],0.6068 mM
same,"cytotoxic activity relative to 2,4-dithiouracil",[2]; normal cell line (Vero),two times stronger
N.N.[Cl][Pt][Cl] [Cisplatin],reduction in cell viability,"[3]; 0.15 mg/mL, 24 h, HeLa",about 10%
same,concentration leading to a significant loss of cell viability,"[3]; HeLa, on average",0.003 mg/mL
same,concentration needed for complete inhibition of viability,[3]; human cervical carcinoma cell line,higher than 1.5 mg/mL
N.N.O=C([O-])C1(C(=O)[O-])CCC1.[Pt+2] [carboplatin],concentration yielding complete inhibition of cell viability,[3]; HeLa,1 mg/mL
"Sc1ccnc(S)n1 [2,4-dithiouracil]",Cytotoxic Concentration (CD50),[1],0.3167 mM
same,Cytotoxic Concentration (CD50),[2],1.421 mM
